Experimental data: patent US20170119806A1, “[…] LACTONE DERIVATIVES AND METHODS OF MAKING AND USING THEREOF” (OHIO STATE INNOVATION FOUNDATION, priority 2014, published 2017)
“Also recorded” adds a separate entry of the source.

What was measured:
human primary NK cells = assay: IFN-γ production by NK cells (intracellular flow cytometry, ELISA); assay type: cell-based; conditions: 10 μM PL-C, 18 h
Description: (A) Chemical structure of PL-C (phyllanthusmin C, 4), (9) Healthy donor PBMCs (left panel) or enriched NK cells (right panel) were treated with DMSO vehicle control or 10 μM PL-C for 18 h in the presence of […] (10 ng/mL) or IL-15 (100 ng/mL). The cells were harvested and analyzed by intracellular flow cytometry to determine the frequency of IFN-γ^+ cells in CD56^+CD3^− NK cells (n=8 for PBMC and n=5 for enriched NK). (C) Highly purified (≧99.5%) human primary NK cells were treated with 10 μM PL-C for 18 h to determine the levels of IFN-γ secretion by ELISA. IFN-γ secretion from treatment with PL-C alone (left panel) or in combination with IL-12 (10 ng/mL, middle panel) or IL-15 (100 ng/mL, right panel) is shown. (D) Cells were treated as described in (C) and harvested at 12 h, IFNG mRNA expression was assessed by real-time RT-PCR, and the relative IFNG mRNA expression of each treatment was normalized to untreated vehicle control in the same donor. Data are shown as mean±SEM (n=6 in each treatment; error bars represent SEM). *p<0.05, **p<0.01, which denote statistical comparison between the two marked treatment groups (B-D). (E) Highly purified (≧99,5%) primary human NK cells were treated with 10 μM. PL-C in combination with various concentrations of IL-12 (10, 1, and 0.1 ng/mL) or IL-15 (100, 10, and 1 ng/mL) for 24 h to determine the levels of IFN-γ secretion. Representative data from one of three donors with the similar data are shown. *p<0.05, **p<0.01, which denote statistical comparison between the two marked treatment groups and are calculated from data of all tested donors. Error bars represent SD. […]
Isolation of PBMCs and NK cells. […] The purity of enriched NK cells was ≧80% assessed by flow cytometric analysis after staining with CD56-allophycocyanin and CD3-FITC Abs (BD Bio-sciences, San Jose, Calif.). […] The purity of magnetic bead-purified NK cells was ≧99.5%, as determined by the aforementioned flow cytometric analysis. […]

[1] = system: primary NK cells cocultured with ARH-77 target cells; assay: NK cell cytotoxicity assay (51Cr release); assay type: cell-based, human; conditions: 10 μM PL-C 8 h, then 4 h coculture, with IL-12 or IL-15; listed as PL-C
Description: (A) Human […] were treated with DMSO vehicle control or 10 μM PL-C for 18 hours in the presence of IL-12 (10 ng/mL) or IL-15 (100 ng/mL), as described in FIG. 37C. The cells were harvested for intracellular flow cytometry to determine the frequency of IFN-γ^+ cells in CD56^−CD3^+[…] or CD56^−CD3^+CD8^+T. Representative data from 1 out of 5 donors are shown. (B) Purified primary NK cells were treated with IL-12 (10 ng/mL) or IL-15 (100 ng/mL) with or without 10 μM PL-C for 8 hours and were sequentially co-cultured with […] labeled ARH-77 cells at various effector/target cell ratios for additional 4 hours. ^51Cr release was measured by a TopCount counter. Data shown are the means of 3 donors. […] Error bars represent S.D. (C) Purified primary NK cells were treated with 10 μM PL-C in the presence of IL-12 (10 ng/mL) (top) or IL-15 (100 ng/mL) (bottom) for 12 hours, and cell pellets were harvested for detecting granzyme A (GZMA), granzyme B (GZMB), perforin (PRF1) and Fas (Fasl) mRNA expression level by real-time RT-PCR. Data shown are the means of 6 donors. p>0.05, vehicle control versus PL-C in all panels. Error bars represent S.D.
Cytotoxicity assay. Cytotoxicity assay was performed as described previously (Yu J et al. Immunity 2006, 24, 575-590; Yu J et al. Blood 2010, 115, 274-281). […] The release of ^51Cr was counted on a TopCount counter (Canberra Packard, Meriden, Conn.). […]

`COc1cc2c(OC3OCC(O)C(O)C3O)c3c(c(-c4ccc5c(c4)OCO5)c2cc1OC)C(=O)OC3` (stereo not drawn) [Compound 4, Phyllanthusmin C] was tested, and the “IFN-γ production/secretion by human NK cells” value (human primary NK cells; alone or with IL-12 (10 ng/mL) or IL-15 (100 ng/mL), listed as PL-C) was “enhanced IFN-γ production; also recorded: can induce NK cell IFN-γ production; also recorded: induced NK cell secretion of IFN-γ even in the absence IL-12 or IL-15; also recorded: enhanced NK cell IFN-γ secretion in the presence of IL-12 or IL-15 stimulation; also recorded: enhanced by PL-C”, the “IFN-γ production induced by Pam3CSK4 or FSL-1 in NK cells” value (human primary NK cells; ligands 1 μg/mL, IL-12 (10 ng/mL)) was “enhanced IFN-γ production” and the NK cell cytotoxicity [1] was “no statistically significant difference; also recorded: little or no; also recorded: did not activate NK cell cytotoxicity; also recorded: limited effect on NK cytotoxicity”.
